The experiment concerns the target Adenosylhomocysteinase (Homo sapiens) (UniProt P23526). The note with it: Bos taurus.

Sequence of Adenosylhomocysteinase (Homo sapiens) (P23526 2-432 limits assumed): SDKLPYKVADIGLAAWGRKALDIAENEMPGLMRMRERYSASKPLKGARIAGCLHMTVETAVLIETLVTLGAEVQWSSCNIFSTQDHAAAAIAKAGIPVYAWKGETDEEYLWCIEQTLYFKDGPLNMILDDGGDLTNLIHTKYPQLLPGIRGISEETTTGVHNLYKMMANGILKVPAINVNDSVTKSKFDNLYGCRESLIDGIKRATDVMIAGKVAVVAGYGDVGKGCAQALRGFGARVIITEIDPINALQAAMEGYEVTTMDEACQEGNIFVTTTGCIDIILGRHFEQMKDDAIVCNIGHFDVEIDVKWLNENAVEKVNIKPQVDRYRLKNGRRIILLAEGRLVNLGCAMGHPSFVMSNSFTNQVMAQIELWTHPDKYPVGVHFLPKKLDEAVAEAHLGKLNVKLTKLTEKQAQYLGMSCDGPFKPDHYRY
Description: NAD+ content of the enzyme tetramer was measured by HPLC on a C 18 reverse-phase column

In turn, `Nc1ncnc2c1ncn2[C@@H]1C=C[C@@H](O)[C@H]1O` had an NAD content (M (M of enzyme)-1) of 0.19. Compound `Nc1ncnc2c1ncn2[C@@H]1C=C(CO)[C@@H](O)[C@H]1O` returned an NAD content (M (M of enzyme)-1) of 0.

Values taken from ChEMBL document CHEMBL1124048, “9-(trans-2',trans-3'-dihydroxycyclopent-4'-enyl) derivatives of adenine and 3-deazaadenine: potent inhibitors of bovine liver S-adenosylhomocysteine hydrolase” (J Med Chem, 1988).
